Data as given in patent US10316064B2, “Teicoplanin analogs and uses thereof” (Academia Sinica, priority 2014, dated 2019).
≈ marks a conversion by molar mass, not a printed value. Read-outs that look alike come from different tables or passages of the source.

Assays:
Orf11*/Dbv8 = experiment: Isothermal titration calorimetry (ITC) analysis of substrate-enzyme affinity; assay type: binding; details: ligand injected into protein solution (0.1 mM)
Procedure: (§1) ITC thermograms of Orf11* versus CoA, acetyl-CoA, butyryl-CoA, hexanoyl-CoA, octanoyl-CoA, decanoyl-CoA, lauroyl-CoA, myristoyl-CoA, palmitoyl-CoA, stearoyl-CoA or Tei-pseudoaglycone. Each exothermic heat pulse corresponds to an injection of 2 μl of ligands (1 mM˜5 mM) into a protein solution (0.1 mM); integrated heat areas constitute a differential binding curve that was fitted with a standard single-site binding model (Origin 7.0, MicroCal iTC200).
(§2) Protein expression, purification and confirmation of purity were performed according to standard protocols. Acyl-CoA analogs were chemically synthesized as described previously (Huang, Y. T. et al. In vitro characterization of enzymes involved in the synthesis of nonproteinogenic residue (2S,3S)-beta-methylphenylalanine in glycopeptide antibiotic mannopeptimycin. Chembiochem 10, 2480-2487, doi:10.1002/cbic.200900351 (2009); Li, T. L., Spiteller, D. & Spencer, J. B. Identification of a pentaketide stilbene produced by a type III polyketide synthase from Pinus sylvestris and characterisation of free coenzyme A intermediates. Chembiochem 10, 896-901, doi:10.1002/cbic.200800840 (2009)). Single-wavelength anomalous dispersion (SAD) and molecular replacement (MR) methods were used to solve structures of native and complex Orf11*/Dbv8. Mutants were made by using QuickChange®. Biochemical analyses for wild type protein and mutants were performed using LC-MS. Oligomerization states of the proteins in solution were determined by gel filtration chromatography and analytical ultracentrifugation (AUC). Substrate-enzyme affinity was determined using isothermal titration calorimetry (ITC). Biological assays were performed according standard protocols.

E. faecalis (ATCC 51559) = experiment: Mouse infection treatment study, ED50 (rescue of 50% infected mice); assay type: in vivo
Procedure: The preliminary ED50 (potency) of the 2-decanoyl,6-octanoyl teicoplanin analog was determined as follows. 6-8 weeks BALB/c female mice were purchased from the National Laboratory Animal Breeding and Research Center, Taipei, Taiwan. Mice with average body weight of 25 to 30 g were subjected to infection via intraperitoneal (i.p.) injection with 1×10^10 cfu/mouse of E. faecalis (ATCC 51559) at day 0. For the treatment study, mice were randomly assigned into five groups at the start of the experiment and administered different amount of either vancomycin, teicoplanin, 2-C10-6-C8-Teicoplanin, or saline (as a blank control) by i.v. twice a day for two days (from day 1 to day 2, a total of 4 doses). The ED50 was determine by the concentration of compounds sufficient to rescue 50% infected mice.

ATCC 29302 = experiment: MIC by broth microdilution (NCCLS); assay type: cell-based
Procedure: (§3) The MIC values were determined by the broth microdilution method, as recommended by the National Committee for Clinical Laboratory Standards (NCCLS). Briefly, overnight cultures of tested bacteria were suspended to a turbidity of 0.1 OD units (1˜5×10^8 CFU/ml). Microtiter plates containing serial dilutions of each antimicrobial agent (0, 1, 2, 4, 8, 16, 32, 64, and 128 μg/ml) were inoculated with each organism to yield the appropriate density (1˜5×10^5 CFU/ml) in a 200 μL final volume. The plates were incubated for 18˜22 h at 37° C.
(§4) MICs were determined as concentrations at which no growth was observed against the strain tested. Experiments were performed in double duplicate. ATCC 29302/ATCC 33186: a standard strain; ATCC 51299: a low-level vancomycin-resistant (VanB type); ATCC 51559: a multidrug-resistant strain (ampicillin, ciprofloxacin, gentamicin, rifampin, teicoplanin and vancomycin, VanA type VRE); ATCC 700221: a strain resistant to vancomycin, VanA type VRE. ATCC 700802 is a strain resistant to gentamicins and vancomycin.

ATCC 33186 = experiment: MIC by broth microdilution (NCCLS); assay type: cell-based
Procedure: as §3, §4

ATCC 51299 = experiment: MIC by broth microdilution (NCCLS); assay type: cell-based
Procedure: as §3, §4

ATCC 700221 = experiment: MIC by broth microdilution (NCCLS); assay type: cell-based
Procedure: as §3, §4

ATCC 700802 = experiment: MIC by broth microdilution (NCCLS); assay type: cell-based
Procedure: as §3, §4

ATCC 51559 = experiment: MIC by broth microdilution (NCCLS); assay type: cell-based, E. faecalis
Procedure: as §3, §4

Orf11* = target: T1, Orf11* (Actinoplanes teichomyceticus, UniProt Q70AY4); experiment: isothermal titration calorimetry (ITC) of acyl-CoA ligands versus Orf11* (FIG. 9); assay type: binding
T1 sequence (Q70AY4 1-323): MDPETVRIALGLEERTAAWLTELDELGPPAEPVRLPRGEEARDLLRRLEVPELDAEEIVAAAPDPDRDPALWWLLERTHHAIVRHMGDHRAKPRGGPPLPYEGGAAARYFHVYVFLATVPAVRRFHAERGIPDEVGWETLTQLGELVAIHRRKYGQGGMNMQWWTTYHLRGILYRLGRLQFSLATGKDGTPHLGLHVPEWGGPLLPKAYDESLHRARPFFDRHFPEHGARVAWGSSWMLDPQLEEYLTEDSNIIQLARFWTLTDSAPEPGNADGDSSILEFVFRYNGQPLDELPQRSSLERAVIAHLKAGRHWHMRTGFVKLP
Procedure: as §1
The orf11* and dbv8 genes were amplified and subcloned into the expression vector pET28a(+). The clones were transformed into E. coli BL21(DE3) for protein over-expression. A typical procedure is described as follows: One liter of LB medium containing 50 mg/L kanamycin was inoculated with 10 mL of an overnight culture grown in LB medium (containing 50 mg/L kanamycin), induced with 1 mL 1.0M IPTG (to give 1.0 mM; exact concentrations varied between proteins) at an OD600 of 0.7, and grown for a further 8 hours at 16° C. Cells were harvested by centrifugation at 6000 rpm for 20 min at 4° C., resuspended in 30 mL binding buffer (50 mM Tris at pH 8.0, 500 mM NaCl, 10 mM imidazole, 10% glycerol) and disrupted by microfluidizer. The cell lysate was centrifuged at 18000 rpm for 30 minutes to remove cell debris. The supernatant was applied to a Ni^2+-NTA agarose resin column (2 mL, Novagen) pre-equilibrated with binding buffer. The column was washed sequentially with 20 mL of binding buffer and 10 mL washing buffer (50 mM Tris at pH 8.0, 500 mM NaCl, 50 mM imidazole, 10% glycerol). The bound protein then was eluted with 10 mL of elution buffer (50 mM Tris at pH 8.0, 500 mM NaCl, 250 mM imidazole, 10% glycerol). Gel filtration was performed using an Äkta FPLC system equipped with an S-200 Superdex column (Amersham Bioscience) under isocratic conditions (50 mM Tris at pH 8.0, 500 mM NaCl). The buffer was exchanged using Millipore centrifugal filters and HEPES buffer (50 mM, pH 8.0). Protein purity was determined by SDS-PAGE and Western blotting, and electrospray mass spectrometry (ESI-MS). Protein concentrations were estimated using the Bradford assay.
as §2
The GNAT domain in Orf11*/Dbv8 differs from the canonical GNAT fold as it lacks the first β strand, and the C-terminus extends with four additional helices (α10-α13). β-Strands β3 and β4 splay apart at C-termini, where Pro198 replaces a typical β-bulge. In a decanoyl-CoA-complexed binary structure (FIG. 2c), the decanoyl-CoA bends in an ‘S’ shape edging in the splayed fingers β3 and β4 (FIG. 8). […]

[1] = ITC, injections of 2 μl of ligand (1 mM˜5 mM) into protein solution (0.1 mM), single-site binding model (Origin 7.0, MicroCal iTC200), Orf11* expressed from pET28a(+) in E. coli BL21(DE3), no mutation stated, read-out: dissociation constant (Kd)
[2] = standard strain, 18~22 h at 37° C.

With `CC(C)(COP(=O)(O)OP(=O)(O)OC[C@H]1O[C@@H](n2cnc3c(N)ncnc32)[C@H](O)[C@@H]1OP(=O)(O)O)[C@@H](O)C(=O)NCCC(=O)NCCS` [CoA 5, coenzyme A] the “binding to the enzyme (ITC)” value (Orf11*/Dbv8) was “barely binds”.
In the case of `CN[C@H](CC(C)C)C(=O)N[C@H]1C(=O)N[C@@H](CC(N)=O)C(=O)N[C@H]2C(=O)N[C@H]3C(=O)N[C@H](C(=O)N[C@H](C(=O)O)c4cc(O)cc(O)c4-c4cc3ccc4O)[C@H](O)c3ccc(c(Cl)c3)Oc3cc2cc(c3O[C@@H]2O[C@H](CO)[C@@H](O)[C@H](O)[C@H]2O[C@H]2C[C@](C)(N)[C@H](O)[C@H](C)O2)Oc2ccc(cc2Cl)[C@H]1O` [Vancomycin, vancomycin], the ED50 (E. faecalis (ATCC 51559); Enterococcus faecalis, ATCC51559, 48 h, read-out: ED50 against ATCC 51559) is reported as > 128 mg/kg, the MIC (ATCC 29302; 22 h, read-out: MIC ATCC 29302) is reported as 1 µg/mL (≈ 0.69 µM) and the MIC (ATCC 33186; 22 h, read-out: MIC ATCC 33186) is reported as 4 µg/mL (≈ 2.76 µM). The MIC (ATCC 51299; 22 h, read-out: MIC ATCC 51299) was > 64 µg/mL, the MIC (ATCC 700221; Enterococcus, ATCC 700221 / VRE, 22 h, read-out: MIC ATCC 700221) was > 128 µg/mL and the MIC (ATCC 700802; 22 h, read-out: MIC ATCC 700802) was 64 µg/mL (≈ 44.2 µM). It also gave an MIC (ATCC 51559; Enterococcus, ATCC 51559 / VRE, 22 h, read-out: MIC ATCC 51559) of 1020 µg/mL (≈ 707 µM).
In the case of `CC(C)(COP(=O)(O)OP(=O)(O)OC[C@H]1O[C@@H](n2cnc3c(N)ncnc32)[C@H](O)[C@@H]1OP(=O)(O)O)[C@@H](O)C(=O)NCCC(=O)NCCSC(=O)c1ccccc1` [benzoyl-CoA], the “binding to the enzyme (ITC)” value (Orf11*/Dbv8) is reported as “does not bind”.
For `CCCC(=O)SCCNC(=O)CCNC(=O)[C@H](O)C(C)(C)COP(=O)(O)OP(=O)(O)OC[C@H]1O[C@@H](n2cnc3c(N)ncnc32)[C@H](O)[C@@H]1OP(=O)(O)O` [butyryl-CoA], the Kd (Orf11*) was 111 ± 23 µM.
With `CCCCCCCCCC(=O)SCCNC(=O)CCNC(=O)[C@H](O)C(C)(C)COP(=O)(O)OP(=O)(O)OC[C@H]1O[C@@H](n2cnc3c(N)ncnc32)[C@H](O)[C@@H]1OP(=O)(O)O` [decanoyl-CoA] the Kd (Orf11*; [1]) was 1 ± 0.1 µM.
In the case of `CCCCCC(=O)SCCNC(=O)CCNC(=O)[C@H](O)C(C)(C)COP(=O)(O)OP(=O)(O)OC[C@H]1O[C@@H](n2cnc3c(N)ncnc32)[C@H](O)[C@@H]1OP(=O)(O)O` [hexanoyl-CoA], the Kd (Orf11*; [1]) is reported as 85.6 ± 9 µM.
In the case of `CCCCCCCCCCCC(=O)SCCNC(=O)CCNC(=O)[C@H](O)C(C)(C)COP(=O)(O)OP(=O)(O)OC[C@H]1O[C@@H](n2cnc3c(N)ncnc32)[C@H](O)[C@@H]1OP(=O)(O)O` [lauroyl-CoA], the Kd (Orf11*; [1]) is reported as 4.1 ± 0.8 µM.
`CC(C)(COP(=O)(O)OP(=O)(O)OC[C@H]1O[C@@H](n2cnc3c(N)ncnc32)[C@H](O)[C@@H]1OP(=O)(O)O)[C@@H](O)C(=O)NCCC(=O)NCCSC(=O)CC(=O)O` [malonyl-CoA] was tested, and the “binding to the enzyme (ITC)” value (Orf11*/Dbv8) was “does not bind”.
`CC(C(=O)O)C(=O)SCCNC(=O)CCNC(=O)[C@H](O)C(C)(C)COP(=O)(O)OP(=O)(O)OC[C@H]1O[C@@H](n2cnc3c(N)ncnc32)[C@H](O)[C@@H]1OP(=O)(O)O` (stereo partly drawn) [methylmalonyl-CoA] was tested, and the “binding to the enzyme (ITC)” value (Orf11*/Dbv8) was “does not bind”.
For `CCCCCCCCCCCCCC(=O)SCCNC(=O)CCNC(=O)[C@H](O)C(C)(C)COP(=O)(O)OP(=O)(O)OC[C@H]1O[C@@H](n2cnc3c(N)ncnc32)[C@H](O)[C@@H]1OP(=O)(O)O` [myristoyl-CoA], the Kd (Orf11*) was 5.9 ± 1.2 µM.
`CCCCCCCC(=O)SCCNC(=O)CCNC(=O)[C@H](O)C(C)(C)COP(=O)(O)OP(=O)(O)OC[C@H]1O[C@@H](n2cnc3c(N)ncnc32)[C@H](O)[C@@H]1OP(=O)(O)O` [octanoyl-CoA] showed a Kd (Orf11*; [1]) of 1 ± 0.1 µM.
`CCCCCCCCCCCCCCCC(=O)SCCNC(=O)CCNC(=O)[C@H](O)C(C)(C)COP(=O)(O)OP(=O)(O)OC[C@H]1O[C@@H](n2cnc3c(N)ncnc32)[C@H](O)[C@@H]1OP(=O)(O)O` [palmitoyl-CoA] gave a Kd (Orf11*; [1]) of 0.4 ± 0.08 µM.
For `CCCCCCCCCCCCCCCCCC(=O)SCCNC(=O)CCNC(=O)[C@H](O)C(C)(C)COP(=O)(O)OP(=O)(O)OC[C@H]1O[C@@H](n2cnc3c(N)ncnc32)[C@H](O)[C@@H]1OP(=O)(O)O` [stearoyl-CoA], the Kd (Orf11*; [1]) was 4.3 ± 0.8 µM.
For “Tei pseudoaglycone [Tei pseudoaglycone 3]”, the “binding to the enzyme (ITC)” value (Orf11*/Dbv8) was “barely binds”.
In the case of Teicoplanin, the “ED50 against ATCC 51559” value (E. faecalis (ATCC 51559); BALB/c female mice infected i.p. with 1×10^10 cfu/mouse, i.v. twice a day for two days (4 doses), amount rescuing 50% infected mice, preliminary) is reported as >128 mg/kg, the “MIC ATCC 29302” value (ATCC 29302; [2]) is reported as 0.25 µg/mL and the “MIC ATCC 33186” value (ATCC 33186; [2]) is reported as 0.25 µg/mL. The “MIC ATCC 51299” value (ATCC 51299; low-level vancomycin-resistant (VanB type), 18~22 h at 37° C.) was 0.5 µg/mL, the “MIC ATCC 700221” value (ATCC 700221; resistant to vancomycin, VanA type VRE, 18~22 h at 37° C.) was >128 µg/mL and the “MIC ATCC 700802” value (ATCC 700802; resistant to gentamicins and vancomycin, 18~22 h at 37° C.) was 0.5 µg/mL. For the same compound, the “MIC ATCC 51559” value (ATCC 51559; multidrug-resistant strain, VanA type VRE, 18~22 h at 37° C.) was 256 µg/mL.
